Numbers after ± are expanded uncertainties.
Experiments:
[1] = Liquid
[2] = xn = mol fraction of the nth substance listed; settings: Liquid, x1 = 1

Compound	mass density ([1]; 293.15 K) [kg/m3]	viscosity ([1]; 293.15 K) [mPa·s]	mass density ([1]; 298.15 K) [kg/m3]	viscosity ([1]; 298.15 K) [mPa·s]	mass density ([2]; 293.15 K) [kg/m3]	viscosity ([2]; 293.15 K) [mPa·s]	mass density ([2]; 298.15 K) [kg/m3]	viscosity ([2]; 298.15 K) [mPa·s]
CCCCCC [hexane]	659.8 ± 2.8	0.2979 ± 0.038	655.3 ± 2.8	0.2865 ± 0.038				
CCO [ethanol]	790.2 ± 2.2	1.21 ± 0.062	785.9 ± 2.2	1.099 ± 0.059				
CCO [ethanol] + CCCCCC					790.2 ± 2.2	1.21 ± 0.062	785.9 ± 2.2	1.099 ± 0.059
CCO [ethanol] + CCCCCCCC					790.2 ± 7.5		785.9 ± 7.6	
CCCCCCCC [octane]	705.6 ± 9.5	0.5374 ± 0.023	701.6 ± 9.6	0.5087 ± 0.022				
CCCCCCCCCC [decane]	731 ± 2.4	0.9133 ± 0.028	727.2 ± 2.4	0.8509 ± 0.027				
